≈ marks a conversion by molar mass, not a printed value. Ends that are not written are not given here.
Assays:
in vitro [1] = details: human, WM-266 cells
in vitro [2] = details: human, HEK293 cells

Row | Molecule | LC100 (WM-266 cell line) [µg/µL] | LC100 (HMEC-1 cell line) | LC100 (HEK293 cell line) | LC100 (BEAS-2B cell line) | LC100 (HUVEC cell line) | CC50 (WM-266 cell line) [µg/mL] | CC50 (HMEC-1 cell line) [µg/mL] | CC50 (HEK293 cell line) [µg/mL] | CC50 (BEAS-2B cell line) [µg/mL] | CC50 (HUVEC cell line) [µg/mL] | CC50 (in vitro [1]) [µg/mL] | CC50 (in vitro [2]) [µg/mL]
1 | CVNDTFAGSTFISDEVD [Peptide-A] | 445 | 452 | 450 | 447 | 445 |  |  |  |  |  |  | 
2 | CCCCCCCCCCCCCC(=O)O[C@@H]1[C@@H](C)[C@@]2(O)[C@@H](C=C(CO)C[C@]3(O)C(=O)C(C)=C[C@@H]23)[C@@H]2C(C)(C)[C@]12OC(C)=O [PMA, Phorbol 12-myristate 13-acetate, reference compound] |  |  |  |  |  | 310 (≈ 503 µM) | 291 (≈ 472 µM) | 275 (≈ 446 µM) | 297 (≈ 481 µM) | 272 (≈ 441 µM) |  | 
3 | CVNDTFAGSTFISDEVDGVDEVAKKKSK [Peptide-AB] | 444 | 450 | 7 | 444 | 456 |  |  |  |  |  | 36 | 6
4 | GVDEVAKKKSK [Peptide-B] | 445 |  |  |  |  |  |  |  |  |  |  | 
5 | Phosphate-buffered saline [PBS] | 587 | 580 | 539 | 616 | 612 |  |  |  |  |  |  | 

Reference: patent US11246922B1, “Vaccine RNA-peptide against SARS-CoV-2 with endogenous exosomes as carrier” (Elidan America, LLC., priority 2021, dated 2022)
